Data set [1] deals with human brain microvascular endothelial cell. Description: Endothelial barrier permeability by transendothelial electrical resistance. As to conditions: MG with NAC. Format: cell-based. How it is done: Moreover, treatment with 100 μM MG in rat thoracic aortic rings for 24 h decreases acetylcholine-induced vascular relaxation via a reduction in p-eNOS (Ser1177) and p-AMPKα (Thr172). MG can reduce endothelial angiogenesis through RAGE-mediated, ONOO(^−)-dependent and autophagy-induced VEGFR2 degradation. […] This is exacerbated by GSH synthesis inhibition and prevented by NAC. The enhanced MG concentration in diabetic patients can also directly contribute to the platelet dysfunction associated with diabetes. Platelet dysfunction is characterized by hyperaggregability and reduced thrombus stability via potentiating thrombin-induced platelet aggregation and dense granule release, but inhibiting platelet spreading on fibronectin and collagen. Given that endothelial dysfunction and enhanced platelet activation could promote stroke, these studies indicate that MG can contribute to ischemic brain injury.

The next data set has as its system STZ diabetic mice. As to the kind of experiment: Tail bleed time as measure of coagulation. As to conditions: 20 week diabetic mice; NAC 2 mM in drinking water for 3 weeks. Format: in vivo, mouse. The procedure: Turning to FIG. 24, as a measure of coagulation, tail bleed time was determined in animals that were diabetic for 20 weeks.
For data set [2] the following is noted: 60 mg/kg/d over 8-75 months in young children; cited from earlier work.
Data set [3] relates to human brain microvascular endothelial cells (IHECs). Description: MG-occludin adduct formation in IHECs (Western blot, immunoprecipitation). Format: cell-based. As to conditions: IHECs in 5 mM glucose exposed to MG for 4 h with 2 mM NAC.
The next data set relates to brain MG contents. Description: Brain MG by HPLC. Format: in vivo, mouse. As to conditions: STZ diabetic mice, NAC 3 weeks. The procedure:
Tissue contents of MG were also determined by HPLC. The brain tissues were homogenized in the same manner as that for GSH measurement. Homogenates (581 μl) were incubated with 19 μl of 60% perchloric acid at room temperature for 24 h and then centrifuged at 12000 rpm at 4° C. for 10 min. The supernatants were derivatized with 0.1M of o-phenylenediamine for 24 h to produce 2-methylquinoxaline. On the third day, the supernatants were used for measurements of MG contents. Separation of MG derivatives, whose peak was detected at 315 nm wavelength, was performed on a 250×4.6-mm Chromegabond Ultra C-18 reversed phase HPLC column. The contents were quantified using MG standards derivatized with o-phenylenediamine. MG contents were normalized to protein concentrations and expressed as nanomoles per mg protein.

Data set [4] concerns brain GSH and cysteine contents. Description: Brain GSH and cysteine by HPLC. Type of data set: in vivo, mouse. The source says: Four-week-old male C57BL/6J mice, weighing 18-20 g, were purchased from Jackson Laboratory. These mice were maintained at the Animal Facility of the Louisiana State University Health Sciences Center—Shreveport. Animal care and use in the experiments follow the guidelines in the Guide for the Care and Use of Laboratory Animals, published by the US National Institutes of Health. Following adaptation for 1 week, the mice were divided randomly into 4 groups: non-treated sham operation group (NT-sham group, n=6), non-treated I/R group (NT-I/R group, n=5), vehicle I/R group (Veh-I/R group, n=24), and streptozotocin I/R group (STZ-I/R group, n=19). […] On day 7, mice whose plasma glucose was more than 300 mg/dl were deemed to be diabetic. From diabetes onset at week 1, a group of diabetic mice were given 0.2 mM NAC in the drinking water for 3 weeks (n=3; a total of 4 weeks diabetes, 3 weeks NAC) or 1 week (n=9; a total of 2 weeks diabetes, 1 week NAC). Veh-I/R mice were injected with citrate buffer for consecutive 5 days, and a group of Veh-treated mice were given 0.2 mM NAC for 2 weeks in the drinking water before the ischemia operation (Veh+NAC group, n=8). Another Veh-treated mice were injected (intraperitoneally, 12 hr interval) with 0.5M BSO 24 h before the ischemia operation and during the 24 h reperfusion period (Veh+BSO group, n=10). All mice were 9 weeks old at sacrifice.
Tissue contents of GSH, cysteine and γGC were determined by high-performance liquid chromatography (HPLC). […] Separation of GSH, cysteine and γGC derivatives whose peaks were detected at 365 nm wavelength was performed on a 250×4.6-mm Alltech Lichrosorb NH2 10 μm anion-exchange column. GSH, cysteine and γGC contents were quantified by comparison to standards derivatized in the same manner. Protein pellets were dissolved in 1 M NaOH for protein quantitation and GSH, cysteine and γGC concentrations were expressed as nanomoles per mg protein.

In data set [5] the test system is platelet-leukocyte aggregates (PLAs). As to the kind of experiment: Platelet-leukocyte aggregate formation in STZ diabetic mice. Type of data set: in vivo, mouse. As to conditions: 5 and 19 week diabetic mice; NAC 2 mM for 2 weeks. The procedure:
Turning to FIGS. 25A-25D, the percent of circulating leukocytes forming aggregates with platelets at 5 weeks of diabetes is shown (FIG. 25A). Aggregate formation between platelets and leukocyte subpopulations include: lymphocytes (FIG. 25B), neutrophils (FIG. 25C) and monocytes (FIG. 25D). Non-diabetic (vehicle-treated (Veh)), diabetic (STZ) and diabetic mice treated with NAC (2 mM for 2 weeks) were assessed. Turning to FIGS. 26A-26D, the percent of circulating leukocytes forming aggregates with platelets at 19 weeks of diabetes is shown (FIG. 26A). Aggregate formation between platelets and leukocyte subpopulations include: lymphocytes (FIG. 26B), neutrophils (FIG. 26C) and monocytes (FIG. 26D). Non-diabetic (vehicle-treated (Veh)), diabetic (STZ) and diabetic mice treated with NAC (2 mM for 2 weeks) were assessed.

This is an account of results in patent US20180036270A1, “A METHOD OF PROTECTING AGAINST CARBONYL STRESS INDUCED ISCHEMIA-REPERFUSION INJURY IN THE DIABETIC BRAIN VIA ADMINISTRATION OF N-ACETYLCYSTEINE” (Board of Supervisors of Louisiana State University and …, priority 2015, published 2018).

Molecules are shown by their SMILES. “Also recorded” adds a separate entry of the source.

In the case of `CC(=O)N[C@@H](CS)C(=O)O` [NAC, N-acetylcysteine], the “MG-induced endothelial barrier permeability” value in data set [1] is “prevented”. Further, the tail bleed time entry in the data set with STZ diabetic mice is “prevented this accelerated coagulation; also recorded: reversed”. Also, the tolerability entry in data set [2] is “well-tolerated”. Besides, in data set [3], the “occludin glycation (MG-occludin adduct)” value is on record as “prevent the formation of MG-occludin adducts; also recorded: prevented”. For the same compound, in the data set with brain MG contents, the MG-to-GSH ratio entry is listed as “significantly decreased” and the “brain MG levels” value is “a trend for decreased MG, but not significant; also recorded: remained high, although trending lower; also recorded: attenuated”. The “brain GSH concentrations” value in data set [4] (STZ diabetic mice, NAC in drinking water 1 or 3 weeks) is recorded as “significant increases in tissue GSH levels; also recorded: significantly higher; also recorded: increased”. Also, in data set [4] (vehicle and STZ diabetic mice given NAC), the brain cysteine levels result was “significant decrease; also recorded: significantly decreased”. Further, in data set [5], the “platelet-leukocyte aggregate (PLA) formation” value is “effectively normalized”.
